Test results from patent publication US20240041976A1, “COMPOSITION AND USE” (priority 2020, published 2024).
No end group written: not given here.

Experiments:
Experiment in all cases: microbe, parasite or virus in culture
[1] = system: S. haemolyticus 4068; details: for MIC of the component in combination: 4068
Method: (§1) Growth inhibition assays were performed in 96-well microtiter plates as described previously (Chi and Holo, 2018, supra). Briefly, 135 μl of TSB were dispensed in each well of a microtiter plate (according to the number of bacterial strains tested) except in the wells of the first row. The antimicrobials were diluted in TSB to working concentrations in a final volume of 285 μl and dispensed in the wells of the first row. The working concentrations were 100 μg/μl for garvicin KS, 10 μg/μl for micrococcin P1 and 1 mg/ml for penicillin G. From the first row, 150 μl of the antimicrobials were then serially diluted (two-fold dilutions) in a sequential fashion until the last row of the plate. Finally, 15 μl of a fresh O/N culture of each strain were added in the appropriate wells to reach a final volume of 150 μl in each well. The plates were then incubated at 37° C. for 24 h. The growth inhibition was expressed as minimum inhibitory concentration (MIC50), which refers to the minimum concentration of the antimicrobial needed to reduce at least 50% of the microbial growth compared to the untreated control. The MIC50 was assessed by optical density readings at 600 nm (O.D.600).
(§2) Synergistic interactions between antimicrobials were determined using the fractional inhibition concentration (FIC). The FIC values were calculated as follows: the sum of the FIC =FICa+FICb+FICc, where the FICa means MIC of A in combination/MIC of A alone, FICb means MIC of B in combination/MIC of B, and FICc means MIC of C in combination/MIC of C alone. Effects were considered as synergistic if FIC was ≤0.5 for two components mixture and ≤0.75 for three components mixture.
(§3) Bacteriocins and antimicrobial assays. […] These bacteriocins were all solubilized in 0.1% (vol/vol) trifluoracetic acid (TFA; Sigma-Aldrich). […] Cell growth inhibition assays and antimicrobial synergy determination was performed in line with Example 1.
(§4) To investigate whether there was synergy between the three bacteriocins (K1-EJ, GarKS and MP1), a checkboard antimicrobial assay was performed. The selected strains were treated for 5, 24 and 48 h with a range of concentrations of K1-EJ, GarKS and MP1 alone or in different combinations.

[2] = system: S. haemolyticus 4069; details: for MIC of the component in combination: 4069
Method: as §1, §2, §3, §4

[3] = system: S. haemolyticus 4070; details: for MIC of the component in combination: 4070
Method: as §1, §2, §3, §4

[4] = system: S. haemolyticus 4071; details: for MIC of the component in combination: 4071
Method: as §1, §2, §3, §4

[5] = system: S. haemolyticus 4072; details: for MIC of the component in combination: 4072
Method: as §1, §2, §3, §4

[6] = system: S. haemolyticus 4073; details: for MIC of the component in combination: 4073
Method: as §1, §2, §3, §4

MKFKFNPTGTIVKKLTQYEINWYKQQYGRYPWERPVA [Hybrid K1-EJ]
MIC ([1]; 4068, 5 h): 0.78 µg/mL
MIC ([1]; 4068, 24 h): >100 µg/mL
MIC ([1]; 4068, 48 h): >100 µg/mL
MIC of the component in combination ([1]; 5 h, K1-EJ + GarKS): 0.83 µg/mL
MIC of the component in combination ([1]; 5 h, K1-EJ + GarKS + MP1): 0.32 µg/mL
MIC of the component in combination ([1]; 5 h, K1-EJ + MP1): 0.2 µg/mL
MIC of the component in combination ([1]; 24 h, K1-EJ + GarKS): 3.1 µg/mL
MIC of the component in combination ([1]; 24 h, K1-EJ + GarKS + MP1): 0.78 µg/mL
MIC of the component in combination ([1]; 24 h, K1-EJ + MP1): 0.78 µg/mL
MIC of the component in combination ([1]; 48 h, K1-EJ + GarKS): 6 µg/mL
MIC of the component in combination ([1]; 48 h, K1-EJ + GarKS + MP1): 2.8 µg/mL
MIC of the component in combination ([1]; 48 h, K1-EJ + MP1): 0.72 µg/mL
MIC ([2]; 4069, 5 h): 0.78 µg/mL
MIC ([2]; 4069, 24 h): 0.78 µg/mL
MIC ([2]; 4069, 48 h): >100 µg/mL
MIC of the component in combination ([2]; 5 h, K1-EJ + GarKS): 1.4 µg/mL
MIC of the component in combination ([2]; 5 h, K1-EJ + GarKS + MP1): 0.68 µg/mL
MIC of the component in combination ([2]; 5 h, K1-EJ + MP1): 1.5 µg/mL
MIC of the component in combination ([2]; 24 h, K1-EJ + GarKS): 6 µg/mL
MIC of the component in combination ([2]; 24 h, K1-EJ + GarKS + MP1): 3.3 µg/mL
MIC of the component in combination ([2]; 24 h, K1-EJ + MP1): 23 µg/mL
MIC of the component in combination ([2]; 48 h, K1-EJ + GarKS): 6.5 µg/mL
MIC of the component in combination ([2]; 48 h, K1-EJ + GarKS + MP1): 5.8 µg/mL
MIC of the component in combination ([2]; 48 h, K1-EJ + MP1): 48 µg/mL
MIC ([3]; 4070, 5 h): 0.78 µg/mL
MIC ([3]; 4070, 24 h): >100 µg/mL
MIC ([3]; 4070, 48 h): >100 µg/mL
MIC of the component in combination ([3]; 5 h, K1-EJ + GarKS): 0.72 µg/mL
MIC of the component in combination ([3]; 5 h, K1-EJ + GarKS + MP1): 0.32 µg/mL
MIC of the component in combination ([3]; 5 h, K1-EJ + MP1): 0.2 µg/mL
MIC of the component in combination ([3]; 24 h, K1-EJ + GarKS): 3.3 µg/mL
MIC of the component in combination ([3]; 24 h, K1-EJ + GarKS + MP1): 2.8 µg/mL
MIC of the component in combination ([3]; 24 h, K1-EJ + MP1): 2.8 µg/mL
MIC of the component in combination ([3]; 48 h, K1-EJ + GarKS): 6.3 µg/mL
MIC of the component in combination ([3]; 48 h, K1-EJ + GarKS + MP1): 5.8 µg/mL
MIC of the component in combination ([3]; 48 h, K1-EJ + MP1): 6 µg/mL
MIC ([4]; 4071, 5 h): 0.78 µg/mL
MIC ([4]; 4071, 24 h): >100 µg/mL
MIC ([4]; 4071, 48 h): >100 µg/mL
MIC of the component in combination ([4]; 5 h, K1-EJ + GarKS): 1.6 µg/mL
MIC of the component in combination ([4]; 5 h, K1-EJ + GarKS + MP1): 0.72 µg/mL
MIC of the component in combination ([4]; 5 h, K1-EJ + MP1): 0.42 µg/mL
MIC of the component in combination ([4]; 24 h, K1-EJ + GarKS): 12 µg/mL
MIC of the component in combination ([4]; 24 h, K1-EJ + GarKS + MP1): 1.6 µg/mL
MIC of the component in combination ([4]; 24 h, K1-EJ + MP1): 1.4 µg/mL
MIC of the component in combination ([4]; 48 h, K1-EJ + GarKS): 24 µg/mL
MIC of the component in combination ([4]; 48 h, K1-EJ + GarKS + MP1): 3.3 µg/mL
MIC of the component in combination ([4]; 48 h, K1-EJ + MP1): 3 µg/mL
MIC ([5]; 4072, 5 h): 0.78 µg/mL
MIC ([5]; 4072, 24 h): >100 µg/mL
MIC ([5]; 4072, 48 h): >100 µg/mL
MIC of the component in combination ([5]; 5 h, K1-EJ + GarKS): 1.5 µg/mL
MIC of the component in combination ([5]; 5 h, K1-EJ + GarKS + MP1): 0.68 µg/mL
MIC of the component in combination ([5]; 5 h, K1-EJ + MP1): 0.36 µg/mL
MIC of the component in combination ([5]; 24 h, K1-EJ + GarKS): 12 µg/mL
MIC of the component in combination ([5]; 24 h, K1-EJ + GarKS + MP1): 1.6 µg/mL
MIC of the component in combination ([5]; 24 h, K1-EJ + MP1): 1.5 µg/mL
MIC of the component in combination ([5]; 48 h, K1-EJ + GarKS): 13 µg/mL
MIC of the component in combination ([5]; 48 h, K1-EJ + GarKS + MP1): 5.8 µg/mL
MIC of the component in combination ([5]; 48 h, K1-EJ + MP1): 1.6 µg/mL
MIC ([6]; 4073, 5 h): 0.78 µg/mL
MIC ([6]; 4073, 24 h): >100 µg/mL
MIC ([6]; 4073, 48 h): >100 µg/mL
MIC of the component in combination ([6]; 5 h, K1-EJ + GarKS): 1.7 µg/mL
MIC of the component in combination ([6]; 5 h, K1-EJ + GarKS + MP1): 0.33 µg/mL
MIC of the component in combination ([6]; 5 h, K1-EJ + MP1): 0.2 µg/mL
MIC of the component in combination ([6]; 24 h, K1-EJ + GarKS): 6.3 µg/mL
MIC of the component in combination ([6]; 24 h, K1-EJ + GarKS + MP1): 0.78 µg/mL
MIC of the component in combination ([6]; 24 h, K1-EJ + MP1): 0.36 µg/mL
MIC of the component in combination ([6]; 48 h, K1-EJ + GarKS): 12 µg/mL
MIC of the component in combination ([6]; 48 h, K1-EJ + GarKS + MP1): 1.6 µg/mL
MIC of the component in combination ([6]; 48 h, K1-EJ + MP1): 0.85 µg/mL
